Results on 14 molecules are retold here after patent EP1276722B1, “NAPHTHAMIDINE UROKINASE INHIBITORS” (ABBOTT LABORATORIES, priority 2000, dated 2001).

One assay deals with angiogenesis.
Assay: not given
The conditions noted are these: J. Cell Biol. 1991, 115[3 Pt 2], 402a; cited from earlier work.
With `N=C(N)NC(=O)c1nc(Cl)c(N)nc1N` [Amiloride], the angiogenesis in vitro result is “inhibit”.

A further assay deals with tumor metastasis.
Assay: not given
The conditions noted are these: Anticancer Res. 1988, 8, 1373-1376; cited from earlier work.
As for `N=C(N)NC(=O)c1nc(Cl)c(N)nc1N` [Amiloride], the “tumor metastasis in vivo” value was “inhibit”.

A further assay has as its target T1, urokinase enzyme Abbokinase (Homo sapiens, UniProt P00749).
T1 construct: purchased Abbott Laboratories, Abbott Park, IL
Description: Inhibition of urokinase on chromogenic substrate S-2444. In kind it is biochemical.
Conditions: not given
`COC/C=C/c1cc(C2CC2c2ccc3c(c2)C(C(C)C)N(C)CC3)cc2ccc(C(=N)N)cc12` (stereo not drawn) [Example 5, 6-(2-(1-isopropyl-2-methyl-1,2,3,4-tetrahydro-7-isoquinolinyl)cyclopropyl)-8-((1E)-3-methoxy-1-propenyl)-2-naphthalenecarboximidamide] had a Ki of 21 nM.

The assay is the same for the next values; noted with them: read-out: Ki.
Regarding `CC(C)C1c2cc(C3CC3c3ccc4cc(C(=N)N)ccc4c3)ccc2CCN1CCO` (stereo not drawn) [Example 26, 6-(2-(2-(2-hydroxyethyl)-1-isopropyl-1,2,3,4-tetrahydro-7-isoquinolinyl)cyclopropyl)-2-naphthalenecarboximidamide], the Ki amounted to 48 nM.

Turning to `N=C(N)c1ccc2cc(C3CC3c3ccc4c(c3)C(c3ccccc3)=NCC4)ccc2c1` (stereo not drawn) [Example 10, 6-(2-(1-phenyl-3,4-dihydro-7-isoquinolinyl)cyclopropyl)-2-naphthalenecarboximidamide], the Ki was found to be 142 nM.

As to `CCN1CCc2ccc(C3CC3c3ccc4cc(C(=N)N)ccc4c3)cc2C1C(C)C` (stereo not drawn) [Example 24, 6-(2-(2-ethyl-1-isopropyl-1,2,3,4-tetrahydro-7-isoquinolinyl)cyclopropyl)-2-naphthalenecarboximidamide], the Ki worked out at 54 nM.

Turning to `CC(C)C1c2cc(C3CC3c3cc(Br)c4cc(C(=N)N)ccc4c3)ccc2CCN1C` (stereo not drawn) [Example 36, 8-bromo-6-(2-(1-isopropyl-2-methyl-1,2,3,4-tetrahydro-7-isoquinolinyl)cyclopropyl)-2-naphthalenecarboximidamide], the Ki was determined as 54 nM.

Turning to `CC(C)C1=NCCc2ccc(C3CC3c3cc(/C=C/C(C)(C)C)c4cc(C(=N)N)ccc4c3)cc21` (stereo not drawn) [Example 34, 8-((1E)-3,3-dimethyl-1-butenyl)-6-(2-(1-isopropyl-3,4-dihydro-7-isoquinolinyl)cyclopropyl)-2-naphthalenecarboximidamide], the Ki turned out to be 51 nM.

Take `CC(C)c1nccc2ccc(C3CC3c3ccc4cc(C(=N)N)ccc4c3)cc12` (stereo not drawn) [Example 2, 6-(2-(1-isopropyl-7-isoquinolinyl)cyclopropyl)-2-naphthalenecarboximidamide]: the Ki came to 480 nM.

With `C=C(C)/C=C/c1cc(C2CC2c2ccc3c(c2)C(C(C)C)N(C)CC3)cc2ccc(C(=N)N)cc12` (stereo not drawn) [Example 38, 6-(2-(1-isopropyl-2-methyl-1,2,3,4-tetrahydro-7-isoquinolinyl)cyclopropyl)-8-((1E)-3-methyl-1,3-butadienyl)-2-naphthalenecarboximidamide], the Ki is 40 nM.

Consider `C=Cc1cc(C2CC2c2ccc3c(c2)C(C(C)C)N(C)CC3)cc2ccc(C(=N)N)cc12` (stereo not drawn) [Example 41, 6-(2-(1-isopropyl-2-methyl-1,2,3,4-tetrahydro-7-isoquinolinyl)cyclopropyl)-8-vinyl-2-naphthalenecarboximidamide], for which the Ki turned out to be 14 nM.

Take `CC(C)C1c2cc(C3CC3c3ccc4cc(C(=N)N)ccc4c3)ccc2CCN1CC1CC1` (stereo not drawn) [Example 23, 6-(2-(2-(cyclopropylmethyl)-1-isopropyl-1,2,3,4-tetrahydro-7-isoquinolinyl)cyclopropyl)-2-naphthalenecarboximidamide]: the Ki is 58 nM.

With `CC(C)/C=C/c1cc(C2CC2c2ccc3c(c2)C(C2CCCCC2)=NCC3)cc2ccc(C(=N)N)cc12` (stereo not drawn) [Example 58, 6-(2-(1-cyclohexyl-3,4-dihydro-7-isoquinolinyl)cyclopropyl)-8-((1E)-3-methyl-1-butenyl)-2-naphthalenecarboximidamide], the Ki was determined as 10 nM.

With `CC(C)C1c2cc(C3CC3c3ccc4cc(C(=N)N)ccc4c3)ccc2CCN1CC(F)(F)F` (stereo not drawn) [Example 33, 6-(2-(1-isopropyl-2-(2,2,2-trifluoroethyl)-1,2,3,4-tetrahydro-7-isoquinolinyl)cyclopropyl)-2-naphthalenecarboximidamide], the Ki amounted to 1440 nM.

In the case of `CC(=O)N1CCc2ccc(C3CC3c3ccc4cc(C(=N)N)ccc4c3)cc2C1C(C)C` (stereo not drawn) [Example 15, 6-(2-(2-acetyl-1-isopropyl-1,2,3,4-tetrahydro-7-isoquinolinyl)cyclopropyl)-2-naphthalenecarboximidamide], the Ki came to 160 nM.
